Measurements: PubChem BioAssay (NCI)
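Interpolation was linear, between the two tested concentrations surrounding the appropriate level; five concentrations were tested over 48 hours in 96-well plates. GI50 is the concentration that inhibits growth by half. The concentration for full growth arrest is given as TGI.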

System: HOP-62 NSCLC
Experiment: inhibition of tumour cell growth, NCI panel, 48 h

`COC(=O)C(Cc1cn(C(C)n2cc(CC(NC(C)=O)C(=O)OC)c3ccccc32)c2ccccc12)NC(C)=O` (centres undefined) and `OCc1cn(Cc2ccccc2)c2ccccc12` cannot be ordered by TGI: greater than 100 µM for the first, greater than 100 µM for the second.

`CC(=O)O[C@@H](c1nccn1Cc1ccccc1)[C@H]1OC(C)(C)O[C@@H]1[C@H]1COC(C)(C)O1` and `O=C1C=C[C@H](O)[C@@]2(CO)O[C@@H]12` cannot be ordered by TGI: greater than 100 µM for the first, greater than 55.2 µM for the second.

In the case of `OCc1ccc2c(c1)CC1(C2)Cc2cc3c(cc2C1O)CCC3` (centres undefined), the TGI is reported as 17.7 µM.

For `O=C1C=C[C@H](O)[C@@]2(CO)O[C@@H]12`, the GI50 was 23.7 µM.

System: CAKI-1 renal
Experiment: inhibition of tumour cell growth, NCI panel, 48 h

Compared with `COC(=O)C(Cc1cn(C(C)n2cc(CC(NC(C)=O)C(=O)OC)c3ccccc32)c2ccccc12)NC(C)=O` (centres undefined), `OCc1cn(Cc2ccccc2)c2ccccc12` is lower in TGI: greater than 100 µM for the first, 1.64 µM for the second.

`CC(=O)O[C@@H](c1nccn1Cc1ccccc1)[C@H]1OC(C)(C)O[C@@H]1[C@H]1COC(C)(C)O1` and `O=C(c1ccco1)N(C(=O)N1CCCCC1)c1ccccc1` cannot be ordered by TGI: greater than 100 µM for the first, greater than 100 µM for the second.

`O=C1C=C[C@H](O)[C@@]2(CO)O[C@@H]12` and `OCc1ccc2c(c1)CC1(C2)Cc2cc3c(cc2C1O)CCC3` (centres undefined) are within 1.5-fold of each other in TGI: 19.3 µM for the first, 27 µM for the second.

`O=C1C=C[C@H](O)[C@@]2(CO)O[C@@H]12` gave a GI50 of 3.04 µM.

System: SK-MEL-28 melanoma
Experiment: inhibition of tumour cell growth, NCI panel, 48 h

`COC(=O)C(Cc1cn(C(C)n2cc(CC(NC(C)=O)C(=O)OC)c3ccccc32)c2ccccc12)NC(C)=O` (centres undefined) and `OCc1cn(Cc2ccccc2)c2ccccc12` cannot be ordered by TGI: greater than 100 µM for the first, greater than 100 µM for the second.

`CC(=O)O[C@@H](c1nccn1Cc1ccccc1)[C@H]1OC(C)(C)O[C@@H]1[C@H]1COC(C)(C)O1` and `O=C(c1ccco1)N(C(=O)N1CCCCC1)c1ccccc1` cannot be ordered by TGI: greater than 100 µM for the first, greater than 100 µM for the second.

`O=C1C=C[C@H](O)[C@@]2(CO)O[C@@H]12` and `OCc1ccc2c(c1)CC1(C2)Cc2cc3c(cc2C1O)CCC3` (centres undefined) are within 1.5-fold of each other in TGI: 25.7 µM for the first, 21.3 µM for the second.

With `O=C1C=C[C@H](O)[C@@]2(CO)O[C@@H]12` the GI50 was 12.8 µM.

System: ACHN renal
Experiment: inhibition of tumour cell growth, NCI panel, 48 h

`OCc1cn(Cc2ccccc2)c2ccccc12` and `O=C(c1ccco1)N(C(=O)N1CCCCC1)c1ccccc1` cannot be ordered by TGI: greater than 58.2 µM for the first, greater than 100 µM for the second.

Compared with `CC(=O)O[C@@H](c1nccn1Cc1ccccc1)[C@H]1OC(C)(C)O[C@@H]1[C@H]1COC(C)(C)O1`, `O=C1C=C[C@H](O)[C@@]2(CO)O[C@@H]12` is lower in TGI: greater than 100 µM for the first, 22 µM for the second.

`OCc1ccc2c(c1)CC1(C2)Cc2cc3c(cc2C1O)CCC3` (centres undefined) was tested, and the TGI was 41.3 µM.

Compound `O=C1C=C[C@H](O)[C@@]2(CO)O[C@@H]12` has a GI50 of 9.42 µM.

System: NCI-H522 lung
Experiment: inhibition of tumour cell growth, NCI panel, 48 h

First: COC(=O)C(Cc1cn(C(C)n2cc(CC(NC(C)=O)C(=O)OC)c3ccccc32)c2ccccc12)NC(C)=O (centres undefined)
Second: OCc1cn(Cc2ccccc2)c2ccccc12
The TGI of the first is higher: greater than 100 µM for the first, 17.1 µM for the second.

Compared with `CC(=O)O[C@@H](c1nccn1Cc1ccccc1)[C@H]1OC(C)(C)O[C@@H]1[C@H]1COC(C)(C)O1`, `O=C1C=C[C@H](O)[C@@]2(CO)O[C@@H]12` is lower in TGI: greater than 100 µM for the first, 3.79 µM for the second.

`OCc1ccc2c(c1)CC1(C2)Cc2cc3c(cc2C1O)CCC3` (centres undefined) was tested, and the TGI was 10 µM.

`O=C1C=C[C@H](O)[C@@]2(CO)O[C@@H]12` was tested, and the GI50 was 1.81 µM.

System: EKVX NSCLC
Experiment: inhibition of tumour cell growth, NCI panel, 48 h

`COC(=O)C(Cc1cn(C(C)n2cc(CC(NC(C)=O)C(=O)OC)c3ccccc32)c2ccccc12)NC(C)=O` (centres undefined) and `OCc1cn(Cc2ccccc2)c2ccccc12` cannot be ordered by TGI: greater than 100 µM for the first, greater than 100 µM for the second.

`CC(=O)O[C@@H](c1nccn1Cc1ccccc1)[C@H]1OC(C)(C)O[C@@H]1[C@H]1COC(C)(C)O1` and `O=C(c1ccco1)N(C(=O)N1CCCCC1)c1ccccc1` cannot be ordered by TGI: greater than 100 µM for the first, greater than 100 µM for the second.

`O=C1C=C[C@H](O)[C@@]2(CO)O[C@@H]12` and `OCc1ccc2c(c1)CC1(C2)Cc2cc3c(cc2C1O)CCC3` (centres undefined) are within 1.5-fold of each other in TGI: 49.9 µM for the first, 40.1 µM for the second.

Work on `O=C1C=C[C@H](O)[C@@]2(CO)O[C@@H]12` yielded a GI50 of 9.69 µM.

System: HCC-2998 colon
Experiment: inhibition of tumour cell growth, NCI panel, 48 h

`COC(=O)C(Cc1cn(C(C)n2cc(CC(NC(C)=O)C(=O)OC)c3ccccc32)c2ccccc12)NC(C)=O` (centres undefined) and `CC(=O)O[C@@H](c1nccn1Cc1ccccc1)[C@H]1OC(C)(C)O[C@@H]1[C@H]1COC(C)(C)O1` cannot be ordered by TGI: greater than 100 µM for the first, greater than 100 µM for the second.

First: O=C1C=C[C@H](O)[C@@]2(CO)O[C@@H]12
Second: OCc1ccc2c(c1)CC1(C2)Cc2cc3c(cc2C1O)CCC3 (centres undefined)
The TGI of the first is lower: 31 µM for the first, greater than 45.3 µM for the second.

`O=C1C=C[C@H](O)[C@@]2(CO)O[C@@H]12` gave a GI50 of 17.2 µM.

System: MALME-3M melanoma
Experiment: inhibition of tumour cell growth, NCI panel, 48 h

First: COC(=O)C(Cc1cn(C(C)n2cc(CC(NC(C)=O)C(=O)OC)c3ccccc32)c2ccccc12)NC(C)=O (centres undefined)
Second: OCc1cn(Cc2ccccc2)c2ccccc12
The TGI of the first is higher: greater than 100 µM for the first, 19.5 µM for the second.

`CC(=O)O[C@@H](c1nccn1Cc1ccccc1)[C@H]1OC(C)(C)O[C@@H]1[C@H]1COC(C)(C)O1` and `O=C(c1ccco1)N(C(=O)N1CCCCC1)c1ccccc1` cannot be ordered by TGI: greater than 100 µM for the first, greater than 100 µM for the second.

First: O=C1C=C[C@H](O)[C@@]2(CO)O[C@@H]12
Second: OCc1ccc2c(c1)CC1(C2)Cc2cc3c(cc2C1O)CCC3 (centres undefined)
The TGI of the first is 2.1-fold lower: 9.32 µM for the first, 19.2 µM for the second.

`O=C1C=C[C@H](O)[C@@]2(CO)O[C@@H]12` was tested, and the GI50 was 2.53 µM.

System: HT29 colon
Experiment: inhibition of tumour cell growth, NCI panel, 48 h

`COC(=O)C(Cc1cn(C(C)n2cc(CC(NC(C)=O)C(=O)OC)c3ccccc32)c2ccccc12)NC(C)=O` (centres undefined) and `OCc1cn(Cc2ccccc2)c2ccccc12` cannot be ordered by TGI: greater than 100 µM for the first, greater than 84.5 µM for the second.

`CC(=O)O[C@@H](c1nccn1Cc1ccccc1)[C@H]1OC(C)(C)O[C@@H]1[C@H]1COC(C)(C)O1` and `O=C(c1ccco1)N(C(=O)N1CCCCC1)c1ccccc1` cannot be ordered by TGI: greater than 100 µM for the first, greater than 100 µM for the second.

`O=C1C=C[C@H](O)[C@@]2(CO)O[C@@H]12` and `OCc1ccc2c(c1)CC1(C2)Cc2cc3c(cc2C1O)CCC3` (centres undefined) are within 1.5-fold of each other in TGI: 19.7 µM for the first, 17.5 µM for the second.

`O=C1C=C[C@H](O)[C@@]2(CO)O[C@@H]12` showed a GI50 of 6.32 µM.

System: M14 melanoma
Experiment: inhibition of tumour cell growth, NCI panel, 48 h

`COC(=O)C(Cc1cn(C(C)n2cc(CC(NC(C)=O)C(=O)OC)c3ccccc32)c2ccccc12)NC(C)=O` (centres undefined) and `OCc1cn(Cc2ccccc2)c2ccccc12` cannot be ordered by TGI: greater than 100 µM for the first, greater than 54.3 µM for the second.

Compared with `O=C1C=C[C@H](O)[C@@]2(CO)O[C@@H]12`, `OCc1ccc2c(c1)CC1(C2)Cc2cc3c(cc2C1O)CCC3` (centres undefined) is 2.2-fold lower in TGI: 29 µM for the first, 13 µM for the second.

In the case of `O=C(c1ccco1)N(C(=O)N1CCCCC1)c1ccccc1`, the TGI is reported as greater than 100 µM.

`O=C1C=C[C@H](O)[C@@]2(CO)O[C@@H]12` gave a GI50 of 15.2 µM.

System: DU-145 prostate
Experiment: inhibition of tumour cell growth, NCI panel, 48 h

`COC(=O)C(Cc1cn(C(C)n2cc(CC(NC(C)=O)C(=O)OC)c3ccccc32)c2ccccc12)NC(C)=O` (centres undefined) and `OCc1cn(Cc2ccccc2)c2ccccc12` cannot be ordered by TGI: greater than 100 µM for the first, greater than 37.2 µM for the second.

`CC(=O)O[C@@H](c1nccn1Cc1ccccc1)[C@H]1OC(C)(C)O[C@@H]1[C@H]1COC(C)(C)O1` and `O=C(c1ccco1)N(C(=O)N1CCCCC1)c1ccccc1` cannot be ordered by TGI: greater than 100 µM for the first, greater than 100 µM for the second.

Compared with `O=C1C=C[C@H](O)[C@@]2(CO)O[C@@H]12`, `OCc1ccc2c(c1)CC1(C2)Cc2cc3c(cc2C1O)CCC3` (centres undefined) is 2.4-fold higher in TGI: 27.4 µM for the first, 67.1 µM for the second.

`O=C1C=C[C@H](O)[C@@]2(CO)O[C@@H]12` showed a GI50 of 14.3 µM.

System: HCT-15 colon
Experiment: inhibition of tumour cell growth, NCI panel, 48 h

Going from `COC(=O)C(Cc1cn(C(C)n2cc(CC(NC(C)=O)C(=O)OC)c3ccccc32)c2ccccc12)NC(C)=O` (centres undefined) to `OCc1cn(Cc2ccccc2)c2ccccc12`, the TGI falls from greater than 100 µM to 31.4 µM.

`CC(=O)O[C@@H](c1nccn1Cc1ccccc1)[C@H]1OC(C)(C)O[C@@H]1[C@H]1COC(C)(C)O1` and `O=C(c1ccco1)N(C(=O)N1CCCCC1)c1ccccc1` cannot be ordered by TGI: greater than 100 µM for the first, greater than 100 µM for the second.

First: O=C1C=C[C@H](O)[C@@]2(CO)O[C@@H]12
Second: OCc1ccc2c(c1)CC1(C2)Cc2cc3c(cc2C1O)CCC3 (centres undefined)
The TGI of the first is lower: 30.5 µM for the first, greater than 44.2 µM for the second.

In the case of `O=C1C=C[C@H](O)[C@@]2(CO)O[C@@H]12`, the GI50 is reported as 14.3 µM.

System: MOLT-4 leukemia
Experiment: inhibition of tumour cell growth, NCI panel, 48 h

`COC(=O)C(Cc1cn(C(C)n2cc(CC(NC(C)=O)C(=O)OC)c3ccccc32)c2ccccc12)NC(C)=O` (centres undefined) and `OCc1cn(Cc2ccccc2)c2ccccc12` cannot be ordered by TGI: greater than 100 µM for the first, greater than 100 µM for the second.

`CC(=O)O[C@@H](c1nccn1Cc1ccccc1)[C@H]1OC(C)(C)O[C@@H]1[C@H]1COC(C)(C)O1` and `O=C(c1ccco1)N(C(=O)N1CCCCC1)c1ccccc1` cannot be ordered by TGI: greater than 100 µM for the first, greater than 100 µM for the second.

`O=C1C=C[C@H](O)[C@@]2(CO)O[C@@H]12` and `OCc1ccc2c(c1)CC1(C2)Cc2cc3c(cc2C1O)CCC3` (centres undefined) are within 1.5-fold of each other in TGI: 16.5 µM for the first, 21.1 µM for the second.

In the case of `O=C1C=C[C@H](O)[C@@]2(CO)O[C@@H]12`, the GI50 is reported as 2.99 µM.

System: PC-3 prostate
Experiment: inhibition of tumour cell growth, NCI panel, 48 h

Compared with `COC(=O)C(Cc1cn(C(C)n2cc(CC(NC(C)=O)C(=O)OC)c3ccccc32)c2ccccc12)NC(C)=O` (centres undefined), `OCc1cn(Cc2ccccc2)c2ccccc12` is lower in TGI: greater than 100 µM for the first, 78.2 µM for the second.

`CC(=O)O[C@@H](c1nccn1Cc1ccccc1)[C@H]1OC(C)(C)O[C@@H]1[C@H]1COC(C)(C)O1` and `O=C(c1ccco1)N(C(=O)N1CCCCC1)c1ccccc1` cannot be ordered by TGI: greater than 100 µM for the first, greater than 100 µM for the second.

Going from `O=C1C=C[C@H](O)[C@@]2(CO)O[C@@H]12` to `OCc1ccc2c(c1)CC1(C2)Cc2cc3c(cc2C1O)CCC3` (centres undefined), the TGI falls from 39.5 µM to 11.7 µM (3.4-fold).

In the case of `O=C1C=C[C@H](O)[C@@]2(CO)O[C@@H]12`, the GI50 is reported as 16.3 µM.

System: HL-60(TB) leukemia
Experiment: inhibition of tumour cell growth, NCI panel, 48 h

`OCc1cn(Cc2ccccc2)c2ccccc12` and `CC(=O)O[C@@H](c1nccn1Cc1ccccc1)[C@H]1OC(C)(C)O[C@@H]1[C@H]1COC(C)(C)O1` cannot be ordered by TGI: greater than 83.2 µM for the first, greater than 100 µM for the second.
